In patent US11590139B2, “Substituted aminopurine compounds, compositions thereof, and methods of treatment therewith” (Signal Pharmaceuticals, LLC, priority 2014, dated 2023):

Tested on: Lox-IMVI melanoma cell line
Assay: Lox-IMVI anti-proliferative assay (growth inhibition, Cell Titer-Glo)
Type: cell-based, human
Details: Homo sapiens; Lox-IMVI anti-proliferative assay, IC50 activity level; read-out: Activity
Procedure, shortened: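 Cells grown in RPMI + 10% FBS were exposed to compound at 0.5 nM to 10 μM (10-point, 3-fold dilution, duplicate, 0.2% DMSO final) for 72 h at 37 °C, 5% CO2. Viability was read by ATP luminescence at t0 and 72 h. IC50 came from a four-parameter logistic fit normalized to DMSO control.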

| Compound | IC50 [nM] |
| --- | --- |
| C[C@H]1COCC[C@@H]1Nc1ncc2nc(Nc3c(F)cc(Cl)cc3Cl)n([C@H]3CC[C@@H](C(N)=O)CC3)c2n1 [Example 504, (1R,4s)-4-(8-(2,4-dichloro-6-fluorophenylamino)-2-((3R,4S)-3-methyltetrahydro-2H-pyran-4-ylamino)-9H-purin-9-yl)cyclohexanecarboxamide] | 500 to 1000 |
| C[C@H]1COCC[C@@H]1Nc1ncc2nc(Nc3c(F)cc(Cl)cc3F)n([C@H]3CC[C@@H](C(N)=O)CC3)c2n1 [Example 507, (1R,4s)-4-(8-(4-chloro-2,6-difluorophenylamino)-2-((3R,4S)-3-methyltetrahydro-2H-pyran-4-ylamino)-9H-purin-9-yl)cyclohexanecarboxamide] | > 1000 |
| C[C@H]1COCC[C@H]1Nc1ncc2nc(Nc3c(F)cc(Cl)cc3F)n([C@H]3CC[C@@H](C(N)=O)CC3)c2n1 [Example 508, (1S,4s)-4-(8-(4-chloro-2,6-difluorophenylamino)-2-((3R,4R)-3-methyltetrahydro-2H-pyran-4-ylamino)-9H-purin-9-yl)cyclohexanecarboxamide] | 500 to 1000 |
| C[C@@H]1COCC[C@@H]1Nc1ncc2nc(Nc3c(F)cc(Cl)cc3F)n([C@H]3CC[C@@H](C(N)=O)CC3)c2n1 [Example 509, (1R,4s)-4-(8-(4-chloro-2,6-difluorophenylamino)-2-((3S,4S)-3-methyltetrahydro-2H-pyran-4-ylamino)-9H-purin-9-yl)cyclohexanecarboxamide] | 500 to 1000 |
| C[C@H]1COCC[C@@H]1Nc1ncc2nc(Nc3c(F)cc(F)cc3F)n([C@H]3CC[C@@H](C(N)=O)CC3)c2n1 [Example 510, (1R,4s)-4-(2-((3R,4S)-3-methyltetrahydro-2H-pyran-4-ylamino)-8-(2,4,6-trifluorophenylamino)-9H-purin-9-yl)cyclohexanecarboxamide] | > 1000 |
| C[C@@H]1COCC[C@@H]1Nc1ncc2nc(Nc3c(F)cc(F)cc3F)n([C@H]3CC[C@@H](C(N)=O)CC3)c2n1 [Example 511, (1R,4s)-4-(2-((3S,4S)-3-methyltetrahydro-2H-pyran-4-ylamino)-8-(2,4,6-trifluorophenylamino)-9H-purin-9-yl)cyclohexanecarboxamide] | 500 to 1000 |
| NC(=O)[C@H]1CC[C@@H](n2c(Nc3c(F)cc(F)cc3F)nc3cnc(N[C@H]4CCCC[C@H]4O)nc32)CC1 [Example 512, (1R,4s)-4-(2-((1S,2R)-2-hydroxycyclohexylamino)-8-(2,4,6-trifluorophenylamino)-9H-purin-9-yl)cyclohexanecarboxamide] | > 1000 |
| NC(=O)[C@H]1CC[C@@H](n2c(Nc3c(F)cc(Cl)cc3Cl)nc3cnc(N[C@H]4CCCC[C@H]4O)nc32)CC1 [Example 513, (1R,4s)-4-(8-(2,4-dichloro-6-fluorophenylamino)-2-((1S,2R)-2-hydroxycyclohexylamino)-9H-purin-9-yl)cyclohexanecarboxamide] | > 1000 |
| NC(=O)[C@H]1CC[C@@H](n2c(Nc3c(Cl)cc(Cl)cc3Cl)nc3cnc(N[C@H]4CCCC[C@H]4O)nc32)CC1 [Example 514, (1R,4s)-4-(2-((1S,2R)-2-hydroxycyclohexylamino)-8-(2,4,6-trichlorophenylamino)-9H-purin-9-yl)cyclohexanecarboxamide] | > 1000 |
| NC(=O)[C@H]1CC[C@@H](n2c(Nc3c(F)cc(Cl)cc3F)nc3cnc(N[C@H]4CCCC[C@H]4O)nc32)CC1 [Example 515, (1R,4s)-4-(8-(4-chloro-2,6-difluorophenylamino)-2-((1S,2R)-2-hydroxycyclohexylamino)-9H-purin-9-yl)cyclohexanecarboxamide] | > 1000 |
| NC(=O)[C@H]1CC[C@@H](n2c(Nc3c(Cl)cc(F)cc3Cl)nc3cnc(N[C@H]4CCCC[C@H]4O)nc32)CC1 [Example 516, (1R,4s)-4-(8-(2,6-dichloro-4-fluorophenylamino)-2-((1S,2R)-2-hydroxycyclohexylamino)-9H-purin-9-yl)cyclohexanecarboxamide] | > 1000 |
| N#Cc1cc(F)c(Nc2nc3cnc(N[C@H]4CCCC[C@H]4O)nc3n2[C@H]2CC[C@@H](C(N)=O)CC2)c(Cl)c1 [Example 517, (1R,4s)-4-(8-(2-chloro-4-cyano-6-fluorophenylamino)-2-((1S,2R)-2-hydroxycyclohexylamino)-9H-purin-9-yl)cyclohexanecarboxamide] | > 1000 |
| N#Cc1cc(Cl)c(Nc2nc3cnc(N[C@H]4CCCC[C@H]4O)nc3n2[C@H]2CC[C@@H](C(N)=O)CC2)c(Cl)c1 [Example 519, (1R,4s)-4-(8-(2,6-dichloro-4-cyanophenylamino)-2-((1S,2R)-2-hydroxycyclohexylamino)-9H-purin-9-yl)cyclohexanecarboxamide] | > 1000 |
| N#Cc1cc(F)c(Nc2nc3cnc(N[C@@H]4CCOC4)nc3n2[C@H]2CC[C@@H](C(N)=O)CC2)c(Cl)c1 [Example 520, (1S,4s)-4-(8-(2-chloro-4-cyano-6-fluorophenylamino)-2-((R)-tetrahydrofuran-3-ylamino)-9H-purin-9-yl)cyclohexanecarboxamide] | 250 to 500 |
| NC(=O)[C@H]1CC[C@@H](n2c(Nc3c(Cl)cc(C(F)(F)F)cc3Cl)nc3cnc(N[C@@H]4CCOC4)nc32)CC1 [Example 523, (1S,4s)-4-(8-(2,6-dichloro-4-(trifluoromethyl)phenylamino)-2-((R)-tetrahydrofuran-3-ylamino)-9H-purin-9-yl)cyclohexanecarboxamide] | > 1000 |
| N#Cc1cc(F)c(Nc2nc3cnc(N[C@@H]4CCOC4)nc3n2[C@H]2CC[C@@H](C(N)=O)CC2)c(F)c1 [Example 529, (1S,4s)-4-(8-(4-cyano-2,6-difluorophenylamino)-2-((R)-tetrahydrofuran-3-ylamino)-9H-purin-9-yl)cyclohexanecarboxamide] | > 1000 |

More lines, now with the values ahead:

| IC50 [nM] | Compound |
| --- | --- |
| 250 to 500 | C[C@@H]1COCC[C@@H]1Nc1ncc2nc(Nc3c(Cl)cc(Cl)cc3Cl)n([C@H]3CC[C@@H](C(N)=O)CC3)c2n1 [Example 502, (1R,4s)-4-(2-((3S,4S)-3-methyltetrahydro-2H-pyran-4-ylamino)-8-(2,4,6-trichlorophenylamino)-9H-purin-9-yl)cyclohexanecarboxamide] |
| < 250 | C[C@@H]1COCC[C@H]1Nc1ncc2nc(Nc3c(F)cc(Cl)cc3Cl)n([C@H]3CC[C@@H](C(N)=O)CC3)c2n1 [Example 503, (1S,4s)-4-(8-(2,4-dichloro-6-fluorophenylamino)-2-((3S,4R)-3-methyltetrahydro-2H-pyran-4-ylamino)-9H-purin-9-yl)cyclohexanecarboxamide] |
| 250 to 500 | C[C@H]1COCC[C@H]1Nc1ncc2nc(Nc3c(F)cc(Cl)cc3Cl)n([C@H]3CC[C@@H](C(N)=O)CC3)c2n1 [Example 505, (1S,4s)-4-(8-(2,4-dichloro-6-fluorophenylamino)-2-((3R,4R)-3-methyltetrahydro-2H-pyran-4-ylamino)-9H-purin-9-yl)cyclohexanecarboxamide] |
| 250 to 500 | C[C@@H]1COCC[C@@H]1Nc1ncc2nc(Nc3c(F)cc(Cl)cc3Cl)n([C@H]3CC[C@@H](C(N)=O)CC3)c2n1 [Example 506, (1R,4s)-4-(8-(2,4-dichloro-6-fluorophenylamino)-2-((3S,4S)-3-methyltetrahydro-2H-pyran-4-ylamino)-9H-purin-9-yl)cyclohexanecarboxamide] |
| 250 to 500 | N#Cc1cc(Cl)c(Nc2nc3cnc(N[C@@H]4CCOC4)nc3n2[C@H]2CC[C@@H](C(N)=O)CC2)c(Cl)c1 [Example 518, (1S,4s)-4-(8-(2,6-dichloro-4-cyanophenylamino)-2-((R)-tetrahydrofuran-3-ylamino)-9H-purin-9-yl)cyclohexanecarboxamide] |
| < 250 | C[C@]1(C(N)=O)CC[C@@H](n2c(Nc3c(F)cc(Cl)cc3F)nc3cnc(NC4CCOCC4)nc32)CC1 [Example 521, (1s,4s)-4-(8-(4-chloro-2,6-difluorophenylamino)-2-(tetrahydro-2H-pyran-4-ylamino)-9H-purin-9-yl)-1-methylcyclohexanecarboxamide] |
| < 250 | C[C@]1(C(N)=O)CC[C@@H](n2c(Nc3c(Cl)cc(Cl)cc3Cl)nc3cnc(NC4CCOCC4)nc32)CC1 [Example 522, (1s,4s)-1-methyl-4-(2-(tetrahydro-2H-pyran-4-ylamino)-8-(2,4,6-trichlorophenylamino)-9H-purin-9-yl)cyclohexanecarboxamide] |
| < 250 | C[C@]1(C(N)=O)CC[C@@H](n2c(Nc3c(F)cc(C#N)cc3F)nc3cnc(NC4CCOCC4)nc32)CC1 [Example 524, (1s,4s)-4-(8-(4-cyano-2,6-difluorophenylamino)-2-(tetrahydro-2H-pyran-4-ylamino)-9H-purin-9-yl)-1-methylcyclohexanecarboxamide] |
| < 250 | C[C@]1(C(N)=O)CC[C@@H](n2c(Nc3c(F)cc(C#N)cc3Cl)nc3cnc(NC4CCOCC4)nc32)CC1 [Example 525, (1s,4s)-4-(8-(2-chloro-4-cyano-6-fluorophenylamino)-2-(tetrahydro-2H-pyran-4-ylamino)-9H-purin-9-yl)-1-methylcyclohexanecarboxamide] |
| < 250 | C[C@]1(C(N)=O)CC[C@@H](n2c(Nc3c(Cl)cc(F)cc3Cl)nc3cnc(NC4CCC(F)(F)CC4)nc32)CC1 [Example 526, (1s,4s)-4-(8-(2,6-dichloro-4-fluorophenylamino)-2-(4,4-difluorocyclohexylamino)-9H-purin-9-yl)-1-methylcyclohexanecarboxamide] |
| < 250 | C[C@]1(C(N)=O)CC[C@@H](n2c(Nc3c(F)cc(F)cc3Cl)nc3cnc(NC4CCC(F)(F)CC4)nc32)CC1 [Example 527, (1s,4s)-4-(8-(2-chloro-4,6-difluorophenylamino)-2-(4,4-difluorocyclohexylamino)-9H-purin-9-yl)-1-methylcyclohexanecarboxamide] |
| < 250 | C[C@]1(C(N)=O)CC[C@@H](n2c(Nc3c(F)cc(Cl)cc3Cl)nc3cnc(NC4CCC(F)(F)CC4)nc32)CC1 [Example 528, (1s,4s)-4-(8-(2,4-dichloro-6-fluorophenylamino)-2-(4,4-difluorocyclohexylamino)-9H-purin-9-yl)-1-methylcyclohexanecarboxamide] |
